Blank lines part the entries; values can stand above or below the molecule they belong to.
Columns and labels:
[1] = tested on: HL60; experiment: cells; design: Cell viability, Alamar Blue fluorescence; conditions: Homo sapiens, HL-60, 72 h
Procedure: (§1) HL60 (CPQ-054) was cultured as suspension cells in RPMI-1640 containing 10% FCS and penicillin/streptomycin. MCF7 (CPQ-072) cells were cultured as adherent cells in DMEM containing 10% FCS and penicillin/streptomycin. Cells were cultured at 37 °C in an atmosphere of 5% (HL60) or 10% (MCF7) CO2. For the assays, cells (5000 cells/well) were seeded in 150 μl medium on a 96-well cell culture plate and incubated overnight at 37 °C. The next day, cells were treated with different concentrations of selected chemicals from CMap. After 72 h, the viability of treated cells was measured after incubation for 4 h with the indicator dye Alamar Blue and fluorescence measurement at 590 nm. The single concentration of mephentermine (50 μM) was tested in quadruplicates. The IC50 curves for the predicted compounds (sulconazole, vinburnine) and their corresponding negative controls (butoconazole, moxisylyte hydrochloride) were prepared in eight semilog dilutions starting at 1E-5M and tested in duplicates. The reference compound staurosporine was prepared in eight decalog dilutions starting at 1E-5M. Standard solvent controls were performed using 0.1% DMSO. Treatment of cells with 0.1% DMSO and 1E-5M staurosporine served as high control (100% viability) and low control (0% viability), respectively. Raw data were converted into percent viability relative to high controls (solvent 0.1% DMSO) and low controls (1E-05M staurosporine), which were set to 100 and 0%, respectively. IC50 values were calculated using R package ‘drc’ ([Ritz and Streibig, 2005]) by fitting dose response data to a two-parametric log-logistic function with 0% growth as bottom constraint and 100% growth as top constraint. For cell cycle analysis, HL60 cells (ATCC CCL-240) were grown for 6 h with an initial concentration of 0.4 Mio/ml in 3 ml of medium before sulconazole (25 μM) and vinburnine (25 μM) (nocodazole, 200ng/ml as reference) were added. For three time points (24, 48 and 72 h), (un)treated cells were collected, fixed in 80% methanol for 24 h and further rehydrated in PBS/1%FCS at room temperature for 30 min before RNAse A (100 μg/ml) and PI (50 μg/ml) treatment. FACS (FACSCalibur, BD Biosciences) was empl

[2] = tested on: MCF7; experiment: cells; design: Cell viability, Alamar Blue fluorescence; conditions: Homo sapiens, MCF7, 72 h
Procedure: as §1

[3] = target: T1, ADRA2C (α-2 adrenergic receptor) (Homo sapiens, UniProt P18825); experiment: biochemical; design: Cerep in vitro receptor binding assay (agonist ligand), per cent inhibition at 50 uM and Ki by Cheng-Prusoff; conditions: read-out: % inhibition
T1 sequence (P18825 1-462): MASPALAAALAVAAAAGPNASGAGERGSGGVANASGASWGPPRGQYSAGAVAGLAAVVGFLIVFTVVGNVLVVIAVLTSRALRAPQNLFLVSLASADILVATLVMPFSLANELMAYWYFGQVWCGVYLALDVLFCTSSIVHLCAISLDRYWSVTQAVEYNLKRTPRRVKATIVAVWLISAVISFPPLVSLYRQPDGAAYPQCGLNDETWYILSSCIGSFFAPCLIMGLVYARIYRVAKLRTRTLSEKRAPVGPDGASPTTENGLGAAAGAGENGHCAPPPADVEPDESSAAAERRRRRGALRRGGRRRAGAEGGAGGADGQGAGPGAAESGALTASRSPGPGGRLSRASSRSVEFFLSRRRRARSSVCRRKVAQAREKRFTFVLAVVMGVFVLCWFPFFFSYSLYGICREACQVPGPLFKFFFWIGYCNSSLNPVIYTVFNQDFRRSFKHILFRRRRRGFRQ
Procedure: (§2) In vitro binding assays were performed by the company Cerep for α-2 adrenergic receptor (agonist, ref. 3443), estrogen receptor-α(ERα, agonist, ref. 0484) and PPARγ (agonist, ref. 0641). Similarly, Cerep carried out the cellular assays of 2C-1 adrenergic receptor (α1B, agonist effect, ref. 1901) and ERα (antagonistic effect, ref. 3495). […] The effect of chemicals were initially evaluated at 50 μM, and Ki values were further determined for chemicals with more than 40% activity in initial assessment. As explained above, R package ‘drc’ ([Ritz and Streibig, 2005]) was utilized to calculate IC50 values using a two-parametric log-logistic function with 0% as minimum and 100% as maximum. Ki values were generated from the IC50 values using Cheng–Prusoff equation.

[4] = target: T2, ADRA1B (Homo sapiens, UniProt P35368); experiment: cell-based; design: Cerep cellular alpha1B adrenergic receptor agonist effect assay (ref. 1901); conditions: read-out: Agonist
T2 sequence (P35368 1-520): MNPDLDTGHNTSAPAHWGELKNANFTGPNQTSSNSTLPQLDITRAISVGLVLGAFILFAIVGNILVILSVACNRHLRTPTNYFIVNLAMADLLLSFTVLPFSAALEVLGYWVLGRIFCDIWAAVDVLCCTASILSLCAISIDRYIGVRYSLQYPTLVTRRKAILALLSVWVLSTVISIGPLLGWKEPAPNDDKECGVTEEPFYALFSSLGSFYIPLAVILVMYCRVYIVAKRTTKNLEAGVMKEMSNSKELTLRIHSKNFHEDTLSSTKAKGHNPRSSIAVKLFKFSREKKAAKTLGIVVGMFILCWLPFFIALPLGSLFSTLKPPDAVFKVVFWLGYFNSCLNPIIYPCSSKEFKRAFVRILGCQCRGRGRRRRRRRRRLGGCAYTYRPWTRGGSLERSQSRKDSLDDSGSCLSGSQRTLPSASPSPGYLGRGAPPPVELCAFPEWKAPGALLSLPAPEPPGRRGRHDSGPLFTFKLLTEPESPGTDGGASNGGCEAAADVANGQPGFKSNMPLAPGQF
Procedure: as §2

[5] = target: T3, PPARγ (peroxisome proliferator-activated receptor subtype-γ) (Homo sapiens, UniProt P37231); experiment: biochemical; design: Cerep in vitro receptor binding assay (agonist ligand), per cent inhibition at 50 uM and Ki by Cheng-Prusoff; conditions: read-out: % inhibition
T3 construct: gene PPARG
T3 sequence (P37231 1-505): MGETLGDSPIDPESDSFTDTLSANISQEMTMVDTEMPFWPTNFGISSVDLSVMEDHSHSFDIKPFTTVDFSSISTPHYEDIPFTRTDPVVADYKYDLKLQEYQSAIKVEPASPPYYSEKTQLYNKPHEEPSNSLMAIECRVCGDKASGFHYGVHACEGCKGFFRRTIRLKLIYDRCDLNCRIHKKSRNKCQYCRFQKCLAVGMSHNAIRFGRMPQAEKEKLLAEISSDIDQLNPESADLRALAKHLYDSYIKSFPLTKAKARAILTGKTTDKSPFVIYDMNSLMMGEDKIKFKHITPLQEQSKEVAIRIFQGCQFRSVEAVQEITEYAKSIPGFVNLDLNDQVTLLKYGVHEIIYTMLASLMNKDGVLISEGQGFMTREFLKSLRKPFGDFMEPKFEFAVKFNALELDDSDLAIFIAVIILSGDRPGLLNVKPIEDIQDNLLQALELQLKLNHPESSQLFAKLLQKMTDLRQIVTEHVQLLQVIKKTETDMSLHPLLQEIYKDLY
Procedure: as §2

[6] = target: T4, estrogen receptor-α (ERα) (Homo sapiens, UniProt P03372); experiment: in vitro binding assay (Cerep, agonist, ref. […]), Ki from IC50 by Cheng-Prusoff; authors call it ambiguous
T4 construct: gene ESR1

[7] = target: T5, estrogen receptor-α (ERα) (Homo sapiens, UniProt P03372); experiment: biochemical; design: Cerep in vitro receptor binding assay (agonist ligand), per cent inhibition at 50 uM and Ki by Cheng-Prusoff; conditions: read-out: % inhibition
T5 construct: gene ESR1
T5 sequence (P03372 1-595): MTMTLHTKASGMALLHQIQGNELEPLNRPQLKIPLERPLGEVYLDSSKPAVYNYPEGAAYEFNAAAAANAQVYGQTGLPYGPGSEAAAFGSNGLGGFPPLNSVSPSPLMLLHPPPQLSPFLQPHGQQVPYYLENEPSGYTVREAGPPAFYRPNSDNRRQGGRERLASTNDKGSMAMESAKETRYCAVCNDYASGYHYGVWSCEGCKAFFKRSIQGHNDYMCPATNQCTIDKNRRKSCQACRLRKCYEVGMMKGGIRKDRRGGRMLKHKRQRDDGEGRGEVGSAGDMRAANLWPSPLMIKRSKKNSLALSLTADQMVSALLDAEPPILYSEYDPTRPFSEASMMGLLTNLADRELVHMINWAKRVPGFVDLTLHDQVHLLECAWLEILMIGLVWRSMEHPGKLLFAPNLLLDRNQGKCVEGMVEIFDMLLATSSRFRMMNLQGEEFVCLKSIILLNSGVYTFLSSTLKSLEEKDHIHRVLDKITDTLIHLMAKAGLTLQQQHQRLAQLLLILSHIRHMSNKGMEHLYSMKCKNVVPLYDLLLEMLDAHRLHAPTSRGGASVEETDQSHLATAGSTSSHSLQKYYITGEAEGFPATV

[8] = target: T5, estrogen receptor-α (ERα); experiment: cell-based; design: Cerep cellular ER alpha antagonist effect assay (ref. 3495); conditions: read-out: Antag./Inhibitor
Procedure: as §2

[9] = target: T3, PPARγ (peroxisome proliferator-activated receptor subtype-γ); experiment: in vitro binding assay (Cerep, agonist, ref. […]), Ki from IC50 by Cheng-Prusoff

IC50 [1]: 3.9 µM
IC50 [2]: 23 µM
Compound: Clc1ccc(CCC(Cn2ccnc2)Sc2c(Cl)cccc2Cl)cc1 (stereo not shown) [Butoconazole]

IC50 [1]: > 50 µM
IC50 [2]: > 50 µM
Compound: CC(=O)Oc1cc(C(C)C)c(OCCN(C)C)cc1C [Moxisylyte]

inhibition at 50 µM [3]: < 20%
activity at 50 µM [4]: < 20%
Compound: C=CC(N)CCC(=O)O (stereo not shown) [Vigabatrin]

inhibition at 50 µM [5]: < 20%
Compound: COC(=O)C1=CO[C@@H](C)[C@H]2CN3CCc4c([nH]c5ccccc45)[C@@H]3C[C@H]12 [Raubasine]

Compound: CCOC(=O)C1=C(C)NC(C)=C(C(=O)OC)C1c1cccc([N+](=O)[O-])c1 (stereo not shown) [nitrendipine]
Ki [6]: ~46 µM
inhibition at 50 µM [7]: 49%

inhibition at 50 µM [8]: 26.3%
Compound: COc1cc(C(=O)OCCCN2CCCN(CCCOC(=O)c3cc(OC)c(OC)c(OC)c3)CC2)cc(OC)c1OC [Dilazep]

Compound: CCCOc1ccccc1-c1nc2nn[nH]c2c(=O)[nH]1 [zaprinast]
inhibition at 50 µM [5]: 57%
Ki [9]: 14 µM

inhibition at 50 µM [3]: 59%
activity at 50 µM [4]: < 20%
Compound: CCCCC(CC)CN1CN(CC(CC)CCCC)CC(C)(N)C1 (stereo not shown) [hexetidine]

Compound: COc1cc([C@@H]2c3cc4c(cc3[C@H](O)[C@H]3COC(=O)[C@H]23)OCO4)cc(OC)c1OC [Podophyllotoxin]
inhibition at 50 µM [3]: < 20%
activity at 50 µM [4]: < 20%

Source: article PMC3658274, “Characterization of drug-induced transcriptional modules: towards drug repositioning and functional understanding” (Molecular Systems Biology, 2013)
